From patent publication US20090074876A1, “PEPTIDE COMPOSITION AND A METHOD OF PROMOTING CARTILAGE FORMATION” (Acologix, Inc., priority 2007, published 2009)
Where a SMILES comes first, the peptide text is derived from it.

Experiments:
[1] = system: osteochondral defect in goat stifle joint; conditions: in vivo
Protocol: In this study, the use of two different concentrations (See Table 1) of AC-100 in conjunction with a collagen sponge and a control with just the collagen sponge was implanted to evaluate the efficacy of AC-100 in repair of bone and cartilage (osteochondral) defects. The implants were intended to serve as an osteochondral allograft for cellular and matrix ingrowth. Efficacy to repair cartilage was assessed using gross and histological examination of the repair tissue. The primary objective was to determine whether AC-100 modifies and/or improves the healing of the osteochondral defect as compared to the study control group and the natural progression of historical controls using this model. This report describes the in vivo, gross and histological findings at the 12 and 24 weeks time points.
A single full-thickness chondral defects were created in the right hind leg stifle joint. The lesion site was located in the anterior medial femoral condyle. The basic surgical procedure was identical for all subjects. All surgeries were performed under strict asepsis. […]
Postoperative checks were made for any animal displaying signs of postoperative discomfort. […] All treatments were recorded in the appropriate study documentation. […]
Animals were humanely sacrificed at Day 84 (12 weeks) or Day 168 (24 weeks) postoperatively. Bodyweights were recorded immediately prior to sacrifice. […]

[2] = system: human mesenchymal stem cells (hMSC); assay: proliferation assay with human mesenchymal stem cells, tritiated thymidine incorporation; type: cell-based; conditions: as compared to the vehicle
Protocol: The peptide of SEQ ID NO:34 was tested for its proliferation activity on human mesenchymal stem cells as compared to CMP-2 and IGF-1.
The same protocol and positive controls were used in this experiment.
SEQ ID NO:34 was selected for this experiment since the amino acid sequence of this peptide was derived from the corresponding region in rat and mouse MEPE where AC-100 was derived from human MEPE. Furthermore, as compared to all other known mammalian corresponding regions to AC-100, it is the least homologous to AC-100 (the human sequence).

[3] = system: 8 mm diameter defect in the rat parietal bones; assay: rat calvaria defect model, bone bridging; type: in vivo; conditions: collagen sponge in defect, daily s.c. injections for 6 days, 28 days post-surgery, histology qualitative score; vs saline and AC-100
Protocol: AC-101, 102, and 103 were tested for their defect bridging activities as compared to AC-100.
As a next step, necessity of RGD integrin-binding motif (SEQ ID NO:42) and SGDG glycosaminoglycan attachment motif (SEQ ID NO:43) to the bone formation activities was examined by testing the selected peptides synthesized in EXAMPLE 1 in a rat calvaria defect model. In this model an 8 mm diameter defect is created in the rat parietal bones and a collagen sponge cut to size is inserted into the defect. The test article is soaked into the sponge. Sub-cutaneous injections are administered daily for 6 days post-surgery. After 28 days post-surgery the rats are euthanized and the calvariae collected. The degree of bone bridging was determined by histology analysis using a qualitative scoring system. The tested peptides were SEQ ID NO: 22, 23, and 24, which were also encoded as AC-101, AC-102, and AC-103, respectively.
AC-100 that includes both the RGD integrin-binding motif and the SGDG glycosaminoglycan attachment motif was used as a positive control at the optimal dose.

## CC[C@H](C)[C@H](NC(=O)[C@H](CC(=O)O)NC(=O)[C@H](CC(N)=O)NC(=O)[C@H](CC(=O)O)NC(=O)CNC(=O)[C@H](CCCNC(=N)N)NC(=O)[C@H](CCC(=O)O)NC(=O)[C@H](CCC(N)=O)NC(=O)[C@H](CC(C)C)NC(=O)[C@H](CC(=O)O)NC(=O)[C@@H](N)[C@@H](C)O)C(=O)N[C@@H](CO)C(=O)N1CCC[C@H]1C(=O)N[C@@H](Cc1ccccc1)C(=O)N[C@@H](CO)C(=O)NCC(=O)N[C@@H](CC(=O)O)C(=O)NCC(=O)N[C@@H](CCC(N)=O)C(=O)N1CCC[C@H]1C(=O)N[C@@H](Cc1ccccc1)C(=O)N[C@@H](CCCCN)C(=O)N[C@@H](CC(=O)O)C(N)=O [AC-100] (H-TDLQERGDNDISPFSGDGQPFKD-NH2)
[1]
  adverse events: No adverse events were identified
  inflammatory response in sections: no evidence of an inflammatory response

## IGF-1: Insulin-like Growth Factor-1, positive control in hMSC proliferation assay
[2]
  proliferation activities of the hMSC by tritiated-thymidine incorporation: Significant proliferation activities

## PDLLVRGDNDVPPFSGDGQHFMH [SEQ ID NO:34]
[2]
  proliferation activities of the hMSC by tritiated-thymidine incorporation: Significant proliferation activities

## TDLQEDGRNDISPFGDGSQPFKD [AC-103]
[3]
  degree of bone bridging: improved versus saline treatment alone and was comparable to the activity of AC-100

## TDLQEDGRNDISPFSGDGQPFKD [AC-101]
[3]
  degree of bone bridging: improved versus saline treatment alone and was comparable to the activity of AC-100

## TDLQERGDNDISPFGDGSQPFKD [AC-102]
[3]
  degree of bone bridging: improved versus saline treatment alone and was comparable to the activity of AC-100
